Measured values reported in patent US9399047B2, “Composition and method to alleviate joint pain using phospholipids and roe extract” (U.S. NUTRACEUTICALS, LLC, priority 2009, dated 2016).

How the values were obtained:
solubility = format: physicochemical
Source text: It is also possible to use a pure diol of the S,S′ astaxanthin, including a synthetic diol with a surfactant and/or the low molecular weight hyaluronic acid. It is possible to use that pure diol in combination with the EPA rich algae based oil or other fish, roe extract, or plant based oil and/or phospholipid and/or surfactant as described above, and which is admixed with either astaxanthin derived from Haematococcus pluvialis or the free diol form in substantially pure S,S′ enantiomer form. It is possible to add synthetically derived mixed enantiomers of the diol. The diol of the S,S′ astaxanthin is possible because in cases of krill oil and possibly algae based oils and Hp derived and other types, there are principally diesters and monoesters respectively with very little diol, which is insoluble. […] It is possible to synthesize asymmetrically the S,S′ pure diol. Despite the pure diol's poor solubility in some examples, there may be an active transport mechanism related to its bioavailability, or conversely, that only in the diol form is the monoester or diester forms transferred from the intestines to the blood. […]

[1] = serum; cited from earlier work
lens epithelial cells = settings: in vitro, umol/L concentrations; cited from earlier work
[2] = 4 mgs/day, compared to untreated subjects; cited from earlier work
rats = settings: cited from earlier work
NO, PGE-2 and TNF-Alpha = settings: induced uveitis; cited from earlier work
healthy adults = settings: eight weeks, 6 mg per day; cited from earlier work
[3] = tested on: photo-receptors, ganglion and neuronal cell; settings: cited from earlier work
[4] = tested on: cellular membrane lipid peroxidation; settings: cited from earlier work
[5] = cited from earlier work
inflammatory markers = settings: astaxanthin 1 mg/kg, cited from earlier work
[6] = tested on: C-Reactive Protein (C-RP); settings: human subjects with high risk levels of C-RP, three months of treatment; cited from earlier work
[7] = cited from earlier work; remark: listed apart in the source
[8] = cited from earlier work; remark: listed apart in the source

CC1=C(/C=C/C(C)=C/C=C/C(C)=C/C=C/C=C(C)/C=C/C=C(C)/C=C/C2=C(C)C(=O)[C@@H](O)CC2(C)C)C(C)(C)C[C@H](O)C1=O [diol of the S,S′ astaxanthin]
solubility (solubility): insoluble

CC1=C(/C=C/C(C)=C/C=C/C(C)=C/C=C/C=C(C)/C=C/C=C(C)/C=C/C2=C(C)C(=O)[C@@H](O)CC2(C)C)C(C)(C)C[C@H](O)C1=O [Astaxanthin, 3,3′-dihydroxy-β-β-carotene-4,4′-dione]
Cmax [1]: 65 ng/mL
T1/2 [1]: 16 h
Tmax [1]: 8 h
UVB induced lipid peroxidative mediated cell damage (lens epithelial cells): suppresses
post exercise joint fatigue following strenuous knee exercise [2]: prevented post exercise joint fatigue
Oral LD 50 (rats; rat, in vivo, po): 600 mg/kg
NOAEL (rats; rats): 465 mg/kg
ocular anti-inflammatory activity by suppression of NO, PGE-2 and TNF-Alpha (NO, PGE-2 and TNF-Alpha): dose dependant ocular anti-inflammatory activity
negative effect of supplementation (healthy adults): no negative effect
crossing of the blood-brain-retina barrier ([3]; direct measurement of retinal astaxanthin concentrations): crosses the blood-brain-retina barrier
photon induced damage of photo-receptors, ganglion and neuronal cell damage ([3]; in vivo): protection
effect on pro-oxidant activity of Vioxx [4]: negate the pro-oxidant activity of Vioxx
free radical quenching ability, times more powerful than Vitamin C ([5]; versus Vitamin C): 65 times
free radical quenching ability, times more powerful than Vitamin E ([5]; versus Vitamin E): 14 times
free radical quenching ability, times more powerful than lutein ([5]; versus lutein): 47 times
free radical quenching ability, times more powerful than β-carotene ([5]; versus β-carotene): 54 times
down regulates TNF-alpha production (inflammatory markers; in vitro and in vivo): 75%
down regulates prostaglandin E-2 production (PGE-2) (inflammatory markers; in vitro and in vivo): 75%
inhibits nitric oxide synthase (Nos) expression of nitric oxide (inflammatory markers; in vitro and in vivo): 58%
effects on inflammatory markers compared with prednisolone (inflammatory markers): nearly as effective as prednisolone
patients whose serum C-RP levels dropped below the risk level [6]: 43%
quenching of singlet oxygen, times more powerful than Vitamin E ([7]; versus Vitamin E): about 50 times
quenching of singlet oxygen, relative to lutein ([7]; versus lutein): three times more powerful
quenching of singlet oxygen, times more powerful than β-carotene ([7]; versus β-carotene): 11 times

CC1=C(/C=C/C(C)=C/C=C/C(C)=C/C=C/C=C(C)/C=C/C=C(C)/C=C/C2=C(C)C(=O)[C@@H](O)CC2(C)C)C(C)(C)C[C@H](O)C1=O [free astaxanthin diol]
uptake relative to esterified astaxanthin ([8]; human plasma, feeding studies): 4-5 times

CCCCCCCCCCCCCCCC(=O)O[C@H]1CC(C)(C)C(/C=C/C(C)=C/C=C/C(C)=C/C=C/C=C(C)/C=C/C=C(C)/C=C/C2=C(C)C(=O)[C@@H](OC(=O)CCCCCCCCCCCCCCC)CC2(C)C)=C(C)C1=O [(3R,3′R-astaxanthin dipalmitate, reference compound]
relative absorption of astaxanthin compared to the other two isomers ([8]; men, astaxanthin fatty acyl diesters (Coral-Hinostroza et al. 2004)): higher relative absorption
